# Assay results as given in US20250034170A1, “SMALL MOLECULE MODULATORS OF GLUCOCEREBROSIDASE ACTIVITY AND USES THEREOF” (Vanqua Bio, Inc., priority 2021, published 2025).
# Molecular target: T1, GCase (Homo sapiens, UniProt P04062)
# T1 construct: endogenous in cells; host or cells: HeLa cells
# T1 sequence (P04062 40-536): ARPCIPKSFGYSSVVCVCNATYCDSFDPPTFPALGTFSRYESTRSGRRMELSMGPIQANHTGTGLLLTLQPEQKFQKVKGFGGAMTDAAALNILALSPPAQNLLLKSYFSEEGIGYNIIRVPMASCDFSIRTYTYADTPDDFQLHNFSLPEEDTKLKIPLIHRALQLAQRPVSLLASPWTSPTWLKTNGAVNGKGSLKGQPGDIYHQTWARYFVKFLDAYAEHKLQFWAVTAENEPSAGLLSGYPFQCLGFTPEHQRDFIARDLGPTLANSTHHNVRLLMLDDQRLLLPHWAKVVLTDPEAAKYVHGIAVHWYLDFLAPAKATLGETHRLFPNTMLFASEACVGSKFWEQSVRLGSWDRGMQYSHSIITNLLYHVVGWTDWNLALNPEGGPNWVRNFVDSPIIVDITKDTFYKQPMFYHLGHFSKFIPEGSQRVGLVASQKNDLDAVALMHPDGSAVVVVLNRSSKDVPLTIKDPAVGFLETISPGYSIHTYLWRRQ
# Assay: activation of GCase in a live cell PFB assay in HELA cells
# Type: cell-based
# Details: EC50 given as range classes
# Protocol: Exemplary compounds were evaluated for activation of GCase in a live cell PFB assay in HELA cells (essentially as described in Ysselstein et al., “LRRK2 kinase activity regulates lysosomal glucocerebrosidase in neurons derived from Parkinson's disease patients” Nature Communications (2019) 10:5570). […] EC50 ranges: A: <10 μM; B: >10-50 μM; C: >50-100 μM; D: >100 μM.
row,EC50 [µM],Structure (SMILES)
1,10 to 50,Cc1nc(N2CCC3(C2)CN(c2cnc4c(C)nn(CC(F)F)c4n2)C3)cc(C(F)(F)F)n1 [Cmpd 578]

# Same assay, conditions: activation of GCase, EC50 ranges
row,Structure (SMILES),EC50 [µM]
1,Cc1nc(N2CCC3(CC(=O)N(c4cnc5cnn(CC(F)F)c5n4)C3)C2)cc(C(F)(F)F)n1 (stereo not shown) [Cmpd 509],10 to 50
2,Cc1nc(N2CC3(CCN(c4cnc5cnn(CC(F)F)c5n4)C3)CC2=O)cc(C(F)(F)F)n1 (stereo not shown) [Cmpd 510],> 100
3,Cc1nc(N2CCC3(CCN(c4cnc5cnn(CC(F)F)c5n4)CC3)C2)cc(C(F)(F)F)n1 [Cmpd 511],< 10
4,Cc1nc(N2CCC3(CCN(c4cnc5cnn(CC(F)F)c5n4)CC3)C2=O)cc(C(F)(F)F)n1 [Cmpd 512],< 10
5,Cc1nc(N2CC3(CCN(c4cnc5cnn(CC(F)F)c5n4)CC3)CC2=O)cc(C(F)(F)F)n1 [Cmpd 513],10 to 50
6,Cc1nn(CC(F)F)c2nc(N3CCC4(CCN(c5ccnc(C(F)(F)F)c5)C4=O)C3)cnc12 (stereo not shown) [Cmpd 514],< 10
7,Cc1nn(CC(F)F)c2nc(N3CCC4(CCN(c5ccnc(C(F)(F)F)c5)C4=O)C3)ncc12 (stereo not shown) [Cmpd 515],< 10
8,Cc1nc(N2CCC3(CCN(c4cnc5cnn(CC(F)F)c5n4)C3)C2=O)cc(C(F)(F)F)n1 (stereo not shown) [Cmpd 516],< 10
9,O=C1N(c2ccnc(C(F)(F)F)c2)CCC12CCN(c1cnc3cnn(CC(F)F)c3n1)C2 (stereo not shown) [Cmpd 517],< 10
10,O=C1N(c2cnc3cnn(CC(F)F)c3n2)CCC12CCN(c1ccnc(C(F)(F)F)c1)C2 (stereo not shown) [Cmpd 518],> 100
11,O=C1N(c2cnc3cnn(CC(F)F)c3n2)CCC12CCN(c1ccc(C(F)(F)F)nc1)C2 (stereo not shown) [Cmpd 519],10 to 50
12,O=C1N(c2cnc3cnn(CC(F)F)c3n2)CCC12CCN(c1ccc(C(F)(F)F)cn1)C2 (stereo not shown) [Cmpd 520],10 to 50
13,Cc1nc(N2CCC3(CCN(c4cnc5cnn(CC(F)F)c5n4)C3)C2)cc(C(F)(F)F)n1 (stereo not shown) [Cmpd 521],< 10
14,Cc1nc(N2CCC3(CCN(c4cnc5cnn(CC(F)F)c5n4)C3=O)C2)cc(C(F)(F)F)n1 (stereo not shown) [Cmpd 523],< 10
15,Cc1nc(N2CC3(CCN(c4cnc5cnn(CC(F)F)c5n4)C3=O)C2)cc(C(F)(F)F)n1 [Cmpd 524],< 10
16,Cc1nc(N2CC3(CC(=O)N(c4cnc5cnn(CC(F)F)c5n4)C3)C2)cc(C(F)(F)F)n1 [Cmpd 525],< 10
17,FC(F)Cn1ncc2ncc(N3CCC4(CC3)CN(c3cnc(C(F)(F)F)nc3)C4)nc21 [Cmpd 526],< 10
18,Cc1cc(N2CC3(CCN(c4cnc5cnn(CC(F)F)c5n4)CC3)C2)nc(C(F)(F)F)n1 [Cmpd 527],< 10
19,Cc1cc(N2CCC3(CCN(c4cnc5cnn(CC(F)F)c5n4)CC3)C2)nc(C(F)(F)F)n1 [Cmpd 528],< 10

row,Structure (SMILES),EC50 [µM]
1,Cc1cc(N2CC3(CCN(c4cnc5cnn(CC(F)F)c5n4)CC3)CC2=O)nc(C(F)(F)F)n1 [Cmpd 529],< 10
2,Cc1nn(CC(F)F)c2nc(N3CCC4(CCN(c5cnc(C(F)(F)F)nc5)C4)C3)cnc12 (stereo not shown) [Cmpd 530],< 10
3,FC(F)(F)Cn1ncc2ncc(N3CCC4(CCN(c5cnc(C(F)(F)F)nc5)C4)C3)nc21 (stereo not shown) [Cmpd 531],< 10
4,FC(F)(F)c1ncc(N2CCC3(CCN(c4cncc(-c5nncs5)n4)C3)C2)cn1 (stereo not shown) [Cmpd 532],10 to 50
5,FC(F)(F)c1ncc(N2CCC3(CCN(c4cnc5cnn(C6COC6)c5n4)C3)C2)cn1 (stereo not shown) [Cmpd 533],< 10
6,Cc1nc(N2CCC3(CCN(c4cnc5cnn(CC(F)(F)F)c5n4)C3)C2)cc(C(F)(F)F)n1 (stereo not shown) [Cmpd 538],10 to 50
7,Cc1nc(N2CCC3(CCN(c4cncc(-c5nncs5)n4)C3)C2)cc(C(F)(F)F)n1 (stereo not shown) [Cmpd 539],10 to 50
8,FC(F)Cn1ncc2cnc(N3CCC4(CCN(c5cnc(C(F)(F)F)nc5)C4)C3)nc21 (stereo not shown) [Cmpd 546],10 to 50
9,Cc1nn(CC(F)F)c2nc(N3CCC4(CCN(c5cnc(C(F)(F)F)nc5)C4)C3)ncc12 (stereo not shown) [Cmpd 547],10 to 50
10,Cc1nc(N2CCC3(C2)CN(c2cnc4cnn(CC(F)F)c4n2)C3)cc(C(F)(F)F)n1 [Cmpd 551],< 10
11,Cc1nc(N2CCC3(C2)CN(c2cnc4cnn(CC(F)(F)F)c4n2)C3)cc(C(F)(F)F)n1 [Cmpd 552],< 10
12,Cc1nc(N2CCC3(C2)CN(c2ncc4cnn(CC(F)F)c4n2)C3)cc(C(F)(F)F)n1 [Cmpd 553],10 to 50
13,Cc1nc(N2CCC3(C2)CN(c2ncc4cnn(CC(F)(F)F)c4n2)C3)cc(C(F)(F)F)n1 [Cmpd 554],10 to 50
14,CC(C)c1ncc(N2CC3(CCN(c4cnc5cnn(CC(F)F)c5n4)C3)C2)cn1 [Cmpd 559],10 to 50
15,FC(F)Cn1ncc2ncc(N3CCC4(CN(c5cnc(C6CC6)nc5)C4)C3)nc21 [Cmpd 560],10 to 50
16,Cc1ncc(N2CC3(CCN(c4cnc5cnn(CC(F)F)c5n4)CC3)C2)c(C(F)(F)F)n1 [Cmpd 561],10 to 50
17,Cc1nc(N2CC3(CCN(c4cnc5cnn(CC(F)(F)F)c5n4)CC3)C2)cc(C(F)(F)F)n1 [Cmpd 567],< 10
18,Cc1nc(N2CCC3(CCN(c4cnc5cnn(CC(F)(F)F)c5n4)CC3)C2)cc(C(F)(F)F)n1 [Cmpd 571],10 to 50

# Second part, the compound after the results:
row,EC50 [µM],Structure (SMILES)
1,< 10,Cc1nc(N2CC3(CCN(c4cnc5cnn(CC(F)F)c5n4)CC3)C2)cc(C(F)(F)F)n1 [Cmpd 522]
2,< 10,Cc1nn(C2COC2)c2nc(N3CCC4(CCN(c5cnc(C(F)(F)F)nc5)C4)C3)cnc12 (stereo not shown) [Cmpd 534]
3,< 10,FC(F)(F)c1ncc(N2CCC3(CCN(c4ncc5cnn(C6COC6)c5n4)C3)C2)cn1 (stereo not shown) [Cmpd 535]
4,< 10,Cc1nn(C2COC2)c2nc(N3CCC4(CCN(c5cnc(C(F)(F)F)nc5)C4)C3)ncc12 (stereo not shown) [Cmpd 536]
5,> 100,Cc1nc(N2CCC3(CCN(c4cnc5c(C)nn(CC(F)F)c5n4)C3)C2)cc(C(F)(F)F)n1 (stereo not shown) [Cmpd 537]
6,10 to 50,Cc1nc(N2CCC3(CCN(c4ncc5cnn(CC(F)F)c5n4)C3)C2)cc(C(F)(F)F)n1 (stereo not shown) [Cmpd 540]
7,< 10,Cc1nc(N2CCC3(CCN(c4ncc5c(C)nn(CC(F)F)c5n4)C3)C2)cc(C(F)(F)F)n1 (stereo not shown) [Cmpd 541]
8,< 10,Cc1nc(N2CCC3(CCN(c4cnc5cnn(C6COC6)c5n4)C3)C2)cc(C(F)(F)F)n1 (stereo not shown) [Cmpd 542]
9,10 to 50,Cc1nc(N2CCC3(CCN(c4cnc5c(C)nn(C6COC6)c5n4)C3)C2)cc(C(F)(F)F)n1 (stereo not shown) [Cmpd 543]
10,10 to 50,Cc1nc(N2CCC3(CCN(c4ncc5c(C)nn(C6COC6)c5n4)C3)C2)cc(C(F)(F)F)n1 (stereo not shown) [Cmpd 544]
11,> 100,Cc1nc(N2CCC3(CCN(c4ncc5cnn(C6COC6)c5n4)C3)C2)cc(C(F)(F)F)n1 (stereo not shown) [Cmpd 545]
12,> 100,Cc1nc(N2CCC3(CCN(c4ncc5cnn(CC(F)(F)F)c5n4)C3)C2)cc(C(F)(F)F)n1 (stereo not shown) [Cmpd 548]
13,> 100,Cc1nc(N2CCC3(CCN(c4cnc5c(C)nn(C6COC6)c5n4)CC3)C2)cc(C(F)(F)F)n1 [Cmpd 549]
14,> 100,Cc1nc(N2CCC3(CCN(c4ncc5c(C)nn(C6COC6)c5n4)CC3)C2)cc(C(F)(F)F)n1 [Cmpd 550]
15,< 10,Cc1nc(N2CCC3(C2)CN(c2cnc4cnn(C5COC5)c4n2)C3)cc(C(F)(F)F)n1 [Cmpd 555]
16,10 to 50,Cc1nc(N2CCC3(C2)CN(c2cnc4c(C)nn(C5COC5)c4n2)C3)cc(C(F)(F)F)n1 [Cmpd 556]

row,EC50 [µM],Structure (SMILES)
1,10 to 50,Cc1nc(N2CCC3(C2)CN(c2ncc4cnn(C5COC5)c4n2)C3)cc(C(F)(F)F)n1 [Cmpd 557]
2,< 10,Cc1nc(N2CCC3(C2)CN(c2ncc4c(C)nn(C5COC5)c4n2)C3)cc(C(F)(F)F)n1 [Cmpd 558]
3,10 to 50,Cc1nc(N2CC3(CCN(c4ncc5cnn(C6COC6)c5n4)CC3)C2)cc(C(F)(F)F)n1 [Cmpd 562]
4,> 100,Cc1nc(N2CC3(CCN(c4cnc5cnn(C6COC6)c5n4)CC3)C2)cc(C(F)(F)F)n1 [Cmpd 563]
5,< 10,Cc1nc(N2CC3(CCN(c4ncc5cnn(CC(F)F)c5n4)CC3)C2)cc(C(F)(F)F)n1 [Cmpd 564]
6,10 to 50,Cc1nc(N2CC3(CCN(c4cnc5c(C)nn(C6COC6)c5n4)CC3)C2)cc(C(F)(F)F)n1 [Cmpd 565]
7,< 10,Cc1nc(N2CC3(CCN(c4ncc5cnn(CC(F)(F)F)c5n4)CC3)C2)cc(C(F)(F)F)n1 [Cmpd 566]
8,< 10,Cc1nc(N2CC3(CCN(c4cnc5c(C)nn(CC(F)F)c5n4)CC3)C2)cc(C(F)(F)F)n1 [Cmpd 568]
9,10 to 50,Cc1nc(N2CC3(CCN(c4ncc5c(C)nn(CC(F)F)c5n4)CC3)C2)cc(C(F)(F)F)n1 [Cmpd 569]
10,10 to 50,Cc1nc(N2CC3(CCN(c4ncc5c(C)nn(C6COC6)c5n4)CC3)C2)cc(C(F)(F)F)n1 [Cmpd 570]
11,< 10,Cc1nc(N2CCC3(CCN(c4ncc5cnn(CC(F)(F)F)c5n4)CC3)C2)cc(C(F)(F)F)n1 [Cmpd 572]
12,> 100,Cc1nc(N2CCC3(CCN(c4ncc5cnn(C6COC6)c5n4)CC3)C2)cc(C(F)(F)F)n1 [Cmpd 573]
13,10 to 50,Cc1nc(N2CCC3(CCN(c4cnc5cnn(C6COC6)c5n4)CC3)C2)cc(C(F)(F)F)n1 [Cmpd 574]
14,> 100,Cc1nc(N2CCC3(CCN(c4cnc5c(C)nn(CC(F)F)c5n4)CC3)C2)cc(C(F)(F)F)n1 [Cmpd 575]
15,10 to 50,Cc1nc(N2CCC3(CCN(c4ncc5c(C)nn(CC(F)F)c5n4)CC3)C2)cc(C(F)(F)F)n1 [Cmpd 576]
16,10 to 50,Cc1nc(N2CCC3(C2)CN(c2ncc4c(C)nn(CC(F)F)c4n2)C3)cc(C(F)(F)F)n1 [Cmpd 577]
